In ChEMBL document CHEMBL1152912, “Protective effects of a benzoxazine derivative against oxidized LDL-induced apoptosis and the increases of integrin beta4, ROS, NF-kappaB and P53 in human umbilical vein endothelial cells” (Bioorg Med Chem Lett, 2009):
Activity calls are given as the source filed them. The rule behind the calls is not given here.

Assays:
HUVEC [1] = test: Antiapoptotic activity against low density lipoprotein-induced vascular apoptosis in HUVEC cells assessed as modulation of NF-kappaB level by lase scanning confocal microscope; format: functional, cell-based; conditions: Homo sapiens
HUVEC [2] = test: Cytotoxicity against HUVEC cells assessed as reduction in low density lipoprotein-induced cell viability at 50 uM by MTT assay; format: cell-based; conditions: human
HUVEC [3] = test: Antiapoptotic activity against low density lipoprotein-induced apoptosis in HUVEC cells by Hoechst 33258 staining; format: functional, cell-based; conditions: Homo sapiens
HUVEC [4] = test: Antiapoptotic activity against low density lipoprotein-induced vascular apoptosis in HUVEC cells assessed as inhibition of ROS by lase scanning confocal microscope; format: functional, cell-based; conditions: Homo sapiens
HUVEC [5] = test: Antiapoptotic activity against low density lipoprotein-induced apoptosis in HUVEC cells assessed as nuclear condensation after 24 hrs by acridin orange staining; format: functional, cell-based; conditions: Homo sapiens
HUVEC [6] = test: Antiapoptotic activity against low density lipoprotein-induced apoptosis in HUVEC cells assessed as apoptotic cell after 24 hrs by TUNEL assay; format: functional, cell-based; conditions: Homo sapiens
HUVEC [7] = test: Antiapoptotic activity against low density lipoprotein-induced apoptosis in HUVEC cells assessed as nuclear fragmentation after 24 hrs by acridin orange staining; format: functional, cell-based; conditions: Homo sapiens
HUVEC [8] = test: Antiapoptotic activity against low density lipoprotein-induced apoptosis in HUVEC cells assessed as inhibition of integrin beta4 level at 50 uM by immunofluorescence technique; format: functional, cell-based; conditions: Homo sapiens
HUVEC [9] = test: Antiapoptotic activity against low density lipoprotein-induced vascular apoptosis in HUVEC cells assessed as translocation of NF-kappaB across the nucleus by lase scanning confocal microscope; format: functional, cell-based; conditions: Homo sapiens
HUVEC [10] = test: Antiapoptotic activity against low density lipoprotein-induced vascular apoptosis in HUVEC cells assessed as modulation of P53 level by lase scanning confocal microscope; format: functional, cell-based; conditions: Homo sapiens

Nc1ccc2c(c1)NC(CO)CO2 (stereo not given)
Activity (HUVEC [1]): Active | Activity (HUVEC [2]): Toxic | Activity (HUVEC [3]): Dose-dependent effect | Activity (HUVEC [4]): Active | Activity (HUVEC [5]): Active | Activity (HUVEC [6]): Active | Activity (HUVEC [7]): Active | Activity (HUVEC [8]): Active | Activity (HUVEC [9]): Active | Activity (HUVEC [10]): Active
